Measured values from patent US20150266864A1, “HETEROAROMATIC COMPOUNDS, METHOD FOR PREPARING THE COMPOUNDS, PHARMACEUTICAL COMPOSITIONS, USES AND METHOD FOR TREATING ACUTE AND CHRONIC PAIN” (CRISTÁLIA PRODUTOS QUÍMICOS FARMACÊUTICOS LTDA, priority 2012, published 2015).
Where a name gives a salt, the structure may show the parent alone.

Columns and labels:
[1] = test system: rats subjected to sciatic nerve CCI; test: Chronic constrictive injury (CCI) of the sciatic nerve, thermal hyperalgesia, paw withdrawal test; assay type: in vivo, rat
Protocol: The chronic constrictive injury (CCI) was induced by sciatic nerve ligation according to the method described by Bennett and Xie [Bennett. G. J.; Xie, Y. K. Pain […], 33: 87-107]. Male Wistar rats, weighing 180-240 g, were anesthetized with a mixture of ketamine and xylazine (60 mg/kg and 5 mg/kg, respectively), intraperitoneally. Through an incision of 0.5 cm (parallel and spaced about 10 mm from the left femur) the sciatic nerve was identified. With a thin glass rod, a small segment of sciatic nerve was exposed and four loosely ligatures were placed around the sciatic nerve spaced 1 mm each other using a 3-0 silk suture thread. After the procedure, the skin was sutured and a topical antiseptic was applied.
To assess animal behavior in response to hyperalgesic phenomenon resulting from sciatic nerve chronic constrictive injury, the model described by Hargreaves and Dubner was used [Hargreaves K., Dubner R., Brown F., Flores C., Joris J. Pain 1988, 32 (1): 77-88]. In this regard, paw withdrawal in response to a painful phenomenon was performed. This is a nociceptive test which involves a peripheral short thermal stimulus induced by the radiant heat of an incandescent lamp bulb. […] Radiant heat has an advantage over the other modes of thermal stimulation in that it produces no tactile stimulus. [Le Bars D., Gozariu M., Cadden S. W. Pharmacology Reviews, 2001, 53 (4), 597-652]. In this assay, a plantar test analgesimeter (ITC Life Science Inc, USA) was used.
Animals were placed in transparent acrylic boxes with tempered glass pane floor for 40 minutes to acclimate. After this period, the radiant heat was applied to the footpads of animals's hindpaws until they make the movement of paw withdrawal. The paw withdrawal latency was defined as the time recorded from the beginning of the radiant heat stimulus and the paw withdrawal. For each paw, three latency records were made, and the average value was used to define the paw withdrawal time control The maximum time that each animal was exposed to the radiant heat source (cut-off) was defined as three times the paw withdrawal time control, to avoid tissue injuries in animals's paws.
The day before surgery, rats, defined as “control before surgery”, were placed in acrylic boxes to the paw withdrawal test. On the 7th day after the surgery (CCI), the paw withdrawal test was again performed in order to verify neuropathic pain has been effectively developed in the left paw—defined as “post-surgery control.”
The paw withdrawal test was assessed during the days 1, 3, and 7 of the treatment (with amitriptyline hydrochloride or the compounds of examples of the instant invention) and on days 1, 3, and 7 after treatment interruption.
(§1) Differences were considered significant when p<0.05.

[2] = test system: rats subjected to SNL; test: Spinal nerve ligation (SNL) L5 model, thermal hyperalgesia; assay type: in vivo, rat
Protocol: (§2) This experimental model was proposed by Kim and Chung [Kim, S. H.; Chung, J. M. Pain 1992, 50: 355-363] and consists of ligation of spinal nerves. Male Wistar rats, 180-220 g, were anesthetized with a mixture of ketamine and xylazine (60 mg/kg and 5 mg/kg, respectively) intraperitoneally. After the dorsal region asepsy, an incision was made between L5 and S1. The L6 transverse process was removed for locating the nerves L4 and L5, which were carefully isolated, and tight ligation of the L5 nerve with 6.0 silk thread was made, interrupting flow of the axon of the nerve. After this procedure, para-spinal muscles and skin were sutured, and then a topical antiseptic was applied. False operated animals (sham) were subjected to the same procedure, however the spinal nerve was not ligated.
This method aims to evaluate the animal behavior in response to hyperalgesic phenomenon resulting from the injury induced by the ligament of spinal nerve (L5). In this regard, paw withdrawal in response to thermal stimulus was used, and the thermal stimulus was induced by the radiant heat of an incandescent lamp bulb. The paw withdrawal test was performed as described for the assessment of thermal hyperalgesia in the sciatic nerve chronic constrictive injury model.
as §1
(§3) The treatment started on the 7th day after surgery. Compounds were diluted in water or DMSO and administered through intraperitoneal route on daily basis, during 7 days, at a dose of […]. The effectiveness of tested compounds was assessed on days 1, 3, and 7 days after treatment, always before the next administration of the compound. Latencies were also assessed on days 1, 3, and 7 after treatment interruption.

[3] = test system: rats subjected to SNL; test: Spinal nerve ligation (SNL) L5 model, mechanical allodynia (digital Von Frey); assay type: in vivo, rat; conditions: after 7 days of treatment, 32.25 μmol/kg ip
Protocol: as §2
To evaluate the development of mechanical allodynia, digital analgesimeter (Model EFF301; Insight Equipments), digitalized version coupled to a pointed filament (Von Frey model variant) was used. This test aims to assess changes in tactile sensitivity in response to a mechanical stimulus as a result of a neural damage. The device consisted of a hand-held force transducer fitted with a sensor tip, through which a pressure with increasing strength is applied against the footpad of the animals hindpaw to assess the threshold of paw withdrawal, that is, the digital analgesimeter records the maximal strength, in grams (g), in which the animal withstands until the paw withdrawal reflex.
Animals were placed in individual acrylic boxes and let to acclimate for 30 min before the beginning of the test. After this period, the thresholds of hindpaw withdrawal were determinded. For each hindpaw, five records of the withdrawal thresholds were made, and the average for each hindpaw was defined as the paw withdrawal threshold control.
as §3, §1

[4] = test system: Swiss-type male mice; test: RotaRod performance test, motor coordination
Protocol: The assessment of motor coordination in mice, by the rotarod performance test, was carried out to detect any possible sedative or muscle relaxant effect caused by the compounds of the present invention, previously tested in acute and neuropathic pain models. This test was carried out according to the method of described by Dunham & Miya and animal motor coordination was evaluated using RotaRod apparatus [Dunham M. S. & Miya. R. T. (1957). J. Amer. Pharmac. Assoc. Sci. Edit. 1957, 46, 208-209].
The RotaRod apparatus (Model 412 EFF, Insight Equipements, Brazil) is a device that measures motor coordination and thus evaluates balance alterations in mice. The apparatus consists of an acrylic box splited into four compartments with a rotational cylinder among them. The cylinder rotates at constant speed driven by a motor and regulated to the constant speed mode of 5-37 revolutions per minute (rpm). In this study the speed was set up to 9 rpm.
To remain on the rotational cylinder, the animal needs to move around, so that the motor coordination can be quantified. The four compartments have drop detection system, through the impact, a microprocessor circuit, for timing the permanence of the animal at the compartment, and for counting the number of falls.
The day before the test, Swiss-type male mice (19-25 g) were placed on the rotational cylinder, set up to the constant speed mode of 9 rpm for adaptation and learning. A group of 10 mice were used for each tested compound, and the total period spent on the rotational cylinder (in seconds) was recorded for a period of 180 seconds (cut off time) and it was accept a maximum of three falls for each animal. Motor coordination was assessed at times 0 (before treatment), 15, 30, 60 and 120 minutes after compounds administration at a dose of 32.25 μmol/kg.
All compounds were administered intraperitoneally (ip).
The Student's t-test was also used to compare means between two experimental groups. Differences were considered significant when p<0.05.

[5] = first day of treatment, 32.25 μmol/kg ip
[6] = after 7 days of 32.25 μmol/kg ip
[7] = male, Swiss, mouse, in vivo, 30 min
[8] = male, Swiss, mouse, in vivo, 60 min
[9] = male, Swiss, mouse, in vivo, 120 min

SMILES: CC(=O)O.Fc1ccc(-c2ncncc2CCN2CCCCC2)cc1 [C6, 1-{2-[4-(4-fluorophenyl)pyrimidin-5-yl]ethyl}piperidinium acetate with 0.8 water molecules]
- antinociceptive effect, paw withdrawal latency vs post-surgery control [1, 5]: antinociceptive effects in the first day of treatment

SMILES: Cl.Cl.Fc1ccc(-c2n[nH]cc2CCN2CCCCC2)cc1.O (hydrate or solvate) [C3, 1-{2-[3-(4-fluorophenyl)-1H-pyrazol-4-yl]ethyl}piperidine dihydrochloride monohydrate]
- melting point: 277 to 279 °C

SMILES: Fc1ccc(-c2n[nH]cc2CCN2CCCCC2)cc1 [C1, 1-{2-[3-(4-fluorophenyl)-1H-pyrazol-4-yl]ethyl}piperidine]
- melting point: 145 to 146 °C

SMILES: CN(C)CCC=C1c2ccccc2CCc2ccccc21 [amitriptyline hydrochloride, reference compound]
- antinociceptive effect after treatment interruption [1, 6]: the antinociceptive effect was observed only after the first day
- paw withdrawal latency ([1]; day 7 of treatment, 32.25 μmol/kg ip daily, p<0.005): significantly increased
- effect on thermal hyperalgesia after treatment interruption [2, 6]: the analgesic effect is not maintained
- paw withdrawal latency, thermal hyperalgesia ([2]; after 7 days of treatment, 32.25 μmol/kg ip): significantly increased
- paw withdrawal threshold, mechanical allodynia [3]: no significant threshold increase
- Mice residence time on the rotational cylinder [4, 7]: 151.0 s
- Mice residence time on the rotational cylinder [4, 8]: 175.8 s
- Mice residence time on the rotational cylinder [4, 9]: 161.8 s

SMILES: CCOC(=O)C1(c2ccccc2)CCN(CCc2c[nH]nc2-c2ccc(F)cc2)CC1 [C18, Ethyl 1-{2-[3-(4-fluorophenyl)-1H-pyrazol-4-yl]ethyl}-4-phenylpiperidine-4-carboxylate]
- antinociceptive effect, paw withdrawal latency vs post-surgery control [1, 5]: antinociceptive effects in the first day of treatment
- melting point: 138 to 139.5 °C

SMILES: Cl.Cl.Fc1ccc(-c2n[nH]cc2CCN2CCOCC2)cc1.O (hydrate or solvate) [C9, 4-{2-[3-(4-fluorophenyl)-1H-pyrazol-4-yl]ethyl}morpholine dihydrochloride monohydrate]
- melting point: 113 to 126 °C (dec.)

SMILES: CC(=O)O.OC1(c2ccc(Cl)cc2)CCN(CCc2cncnc2-c2ccc(F)cc2)CC1 [C16, 4-(4-chlorophenyl)-4-hydroxy-1-{2-[4-(4-fluorophenyl)pyrimidin-5-yl]ethyl}piperidinium acetate]
- antinociceptive effect, paw withdrawal latency vs post-surgery control [1, 5]: antinociceptive effects in the first day of treatment
- latency increase, statistical significance ([1]; first day of treatment, 32.25 μmol/kg ip, p<0.05 or p<0.005): the latency increase was statistically significant
- animal residence time on the rotational cylinder compared to controls ([4]; 15 minutes after administration, 32.25 μmol/kg): equal to the time observed for the negative control, and significantly higher than the time observed for the control amitriptyline hydrochloride
- Mice residence time on the rotational cylinder ([4]; T 15 min after ip administration, 32.25 μmol/kg, 9 rpm, cut off 180 s, mean ± SEM): 178.6 s
- Mice residence time on the rotational cylinder ([4]; T 30 min after ip administration, 32.25 μmol/kg (diazepam 2 mg/kg), 9 rpm, cut off 180 s, mean ± SEM): 178.8 s
- Mice residence time on the rotational cylinder ([4]; T 60 min after ip administration, 32.25 μmol/kg (diazepam 2 mg/kg), 9 rpm, cut off 180 s, mean ± SEM): 150.8 s
- Mice residence time on the rotational cylinder ([4]; T 120 min after ip administration, 32.25 μmol/kg (diazepam 2 mg/kg), 9 rpm, cut off 180 s, mean ± SEM): 126.3 s

SMILES: Cl.Fc1ccc(-c2nocc2CCN2CCCCC2)cc1 [C5, 1-{2-[3-(4-fluorophenyl)-1,2-oxazol-4-yl]ethyl}piperidine hydrochloride]
- antinociceptive effect, paw withdrawal latency vs post-surgery control [1, 5]: antinociceptive effects in the first day of treatment
- Mice residence time on the rotational cylinder [4, 7]: 178.6 s
- Mice residence time on the rotational cylinder [4, 8]: 173.4 s
- Mice residence time on the rotational cylinder [4, 9]: 179.2 s
- Mice residence time on the rotational cylinder ([4]; male, Swiss, mouse, in vivo, ip, 15 min): 180.0 s

SMILES: CCN1CCN(CCc2c[nH]nc2-c2ccc(F)cc2)CC1.Cl.Cl.Cl.O.O.O (hydrate or solvate) [C12, 1-ethyl-4-{2-[3-(4-fluorophenyl)-1H-pyrazol-4-yl]ethyl}piperazine trihydrochloride trihydrate]
- melting point: 226 to 237 °C (dec.)
